Results taken from patent US6562837B1, “Use of tetrahydroisoquinoline compounds for the treatment of septicemia” (Korea Institute of Science & Technology, priority 1998, dated 2003).

Key:
[1] = tested on: acute thrombosis in the pulmonary artery; assay: Acute thrombosis (collagen plus epinephrine i.v.) in mice, recovery from paralysis; assay type: in vivo
Description: A mixture of collagen (300:μg/kg) plus epinephrine (30:μg/kg) was injected into the tail vein of mice (ICR; […], the same mice were employed in all of the following experiments) to induce massive, acute thrombosis in the pulmonary artery. Thus, an acute thrombosis model, in which mice were paralyzed in 1-3 min after the injection and most of them died within 15 min was prepared. To investigate the effect of the compounds of Chemical Formulas 1 and 2 on the acute thrombosis, either of the compounds was orally administered to mice for 1 or 3 days. The intravenous injection of the mixture of collagen and epinephrine was conducted 1 hour after the final oral administration. An observation was taken to examine the mortality change and the recovery from the paralysis and the results are given in Tables 4 and 5, below.
Most of the mice were paralyzed within 1 min after the injection, following dilation of the pupils, difficult breathing, and convulsions. Most of the mice either died within 5 min or were subjected to paralysis for 15 min or longer. Only a few of them recovered from the paralysis.

[2] = tested on: thrombus formation in AVS tube; assay: Thrombus formation in arterio-venous shunt (AVS) tube in rats; assay type: in vivo
Description: An AVS tube was prepared. For this, a scalp vein set was cut into a length of 18 cm, and each end was connected to a 18G syringe needle while a 100% cotton thread 5 cm long was fixed to the center of the tube. Rats were anesthetized with ketamine (250 mg/kg) by injection (i.m.) and underwent laparotomy. An AVS tube filled with saline was installed between the abdominal aorta and the renal vein in such a way that its one syringe needle was inserted in the abdominal aorta and the other syringe needle was inserted in the renal vein. Blood was allowed to pass through the AVS tube so as to form thrombus on the cotton thread. After circulation of blood through the AVS tube for 15 min, the thread was taken out from the AVS tube. The weight of the thrombus formed on the cotton thread was determined by weighing the thread.

α-receptor = assay: Binding affinity to α-adrenoceptor, [3H]prazosin, rat cerebral cortical membrane
Description: For this, the cerebral cortex obtained from rats (Sprague-Dawley, 250±20 g; unless particularly mentioned, the same rats were used in the following experiments) was homogeneously mixed with a 20× buffer (50 mM Tris, 5 mM MgSO4, 1 mM EDTA, 1 mM ascorbic acid, pH 7.7) and then, centrifuged three times at 35,000×g for 15 min and the pellet was stored at −70° C. A solution of 5 mg of the pellet in 1 ml of the buffer was incubated, along with [^3H]prazosin (200 pM) and samples, at 25° C. for 30 min followed by adding 10 ml of a buffer (50 mM Tris, pH 7.7) to quench the binding reaction. The resulting solution was filtered through a Whatman GF/C glass microfiber filter which was then shaken for 2 hours while being completely submerged in a scintillation cocktail. The radioactivity was measured using a scintillation counter (Beckman, LS6500)

Compound | Mice Recovered, Number ([1]; 50 mg/kg orally once for three successive days, recovered within 15 min) | Mice Recovered, % ([1]; 50 mg/kg orally once for three successive days, recovered within 15 min, control 20%) [%] | Mice Recovered, Number ([1]; 50 mg/kg orally once, recovered from thrombotic paralysis within 15 min) | Mice Recovered, % ([1]; 50 mg/kg orally once, recovered within 15 min, control 17%) [%] | % Inhibition of thrombus formation ([2]; 50 mg/kg orally once a day for successive three days) [%] | Weight (mg) of thrombus ([2]; 50 mg/kg orally once a day for successive three days, control 42.67 ± 5.381) [mg] | % Inhibition of thrombus formation ([2]; 50 mg/kg orally once, first series, control 33.61 mg) [%] | Weights (mg) of thrombus ([2]; 50 mg/kg orally once, first series, control 33.61 ± 7.620) [mg] | % Inhibition of thrombus formation ([2]; 50 mg/kg orally once, second series, control 39.54 mg) [%] | Weights (mg) of thrombus ([2]; 50 mg/kg orally once, second series, control 39.54 ± 5.625) [mg] | Kd (α-receptor) [nM]
CC(=O)Oc1ccccc1C(=O)O [Aspirin, reference compound] | 11 | 55 | 32 | 52 | 12.4 | 37.37 ± 7.369 | 40.8 | 19.89 ± 7.213 | 36.3 | 25.18 ± 6.725 | –
COc1cc2nc(N3CCN(C(=O)c4ccco4)CC3)nc(N)c2cc1OC [prazosin, reference compound] | – | – | – | – | – | – | – | – | – | – | 0.134 ± 0.00891
